According to PubChem BioAssay (NCI):
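Values below derive from 48-hour exposures of cells grown in 96-well plates, with endpoints linearly interpolated between the two concentrations bracketing the appropriate inhibition level. GI50 marks 50% less growth. The concentration for full growth arrest is given as TGI.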

Columns and labels:
Experiment in all cases: growth of human tumour cells (NCI), 48 h
[1] = test system: HOP-62 NSCLC
[2] = test system: EKVX NSCLC
[3] = test system: LOX IMVI melanoma
[4] = test system: MDA-MB-468 breast
[5] = test system: HCT-116 colon
[6] = test system: OVCAR-5 ovarian
[7] = test system: NCI-H460 lung
[8] = test system: OVCAR-8 ovarian
[9] = test system: SK-MEL-5 melanoma
[10] = test system: ACHN renal
[11] = test system: HT29 colon
[12] = test system: RXF 393 renal
[13] = test system: KM12 colon
[14] = test system: SK-MEL-28 melanoma
[15] = test system: UACC-62 melanoma
[16] = test system: SK-MEL-2 melanoma
[17] = test system: K-562 leukemia
[18] = test system: SNB-19 CNS
[19] = test system: A498 renal
[20] = test system: NCI-H226 lung
[21] = test system: M14 melanoma
[22] = test system: SNB-75 CNS
[23] = test system: MALME-3M melanoma
[24] = test system: UACC-257 melanoma
[25] = test system: MOLT-4 leukemia
[26] = test system: SK-OV-3 ovarian
[27] = test system: HOP-92 NSCLC
[28] = test system: OVCAR-4 ovarian
[29] = test system: RPMI-8226 leukemia
[30] = test system: HCT-15 colon
[31] = test system: MDA-MB-435
[32] = test system: MCF7 breast
[33] = test system: CCRF-CEM leukemia
[34] = test system: SR leukemia
[35] = test system: T-47D breast
[36] = test system: NCI-H522 lung
[37] = test system: TK-10 renal
[38] = test system: BT-549 breast
[39] = test system: A549 NSCLC
[40] = test system: SF-295 CNS
[41] = test system: U251 CNS
[42] = test system: NCI-H23 lung
[43] = test system: MDA-MB-231 breast
[44] = test system: CAKI-1 renal
[45] = test system: SW-620 colon
[46] = test system: HCC-2998 colon
[47] = test system: HS 578T breast
[48] = test system: 786-0 renal
[49] = test system: SF-539 CNS
[50] = test system: IGROV1 ovarian
[51] = test system: HL-60(TB) leukemia
[52] = test system: SF-268 CNS
[53] = test system: UO-31 renal
[54] = test system: OVCAR-3 ovarian
[55] = test system: PC-3 prostate
[56] = test system: SN12C renal
[57] = test system: DU-145 prostate
[58] = test system: COLO 205 colon

O=C(c1ccc(Cl)cc1)C1[C@H](c2ccc(Br)cc2)[C@@H](c2ccccc2)NC12C(=O)Nc1ccc(Br)cc12 (stereo partly specified)
GI50 [1]: 5.17 µM
TGI [1]: 11.5 µM
GI50 [2]: 1940 nM
TGI [2]: 8.07 µM
GI50 [3]: 927 nM
TGI [3]: 1990 nM
GI50 [4]: 1550 nM
TGI [4]: 7.73 µM
GI50 [5]: 1090 nM
TGI [5]: 2350 nM
GI50 [6]: 3.55 µM
TGI [6]: 9.88 µM
GI50 [7]: 1070 nM
TGI [7]: 2540 nM
GI50 [8]: 1930 nM
TGI [8]: 6.97 µM
GI50 [9]: 6.2 µM
TGI [9]: 12.6 µM
GI50 [10]: 1520 nM
TGI [10]: 5.07 µM
GI50 [11]: 1190 nM
TGI [11]: 3.09 µM
GI50 [12]: 1180 nM
TGI [12]: 3.25 µM
GI50 [13]: 1820 nM
TGI [13]: 7.45 µM
GI50 [14]: 4.78 µM
TGI [14]: 10.7 µM
GI50 [15]: 2940 nM
TGI [15]: 9.44 µM
GI50 [16]: 5.3 µM
TGI [16]: 11.5 µM
GI50 [17]: 1650 nM
TGI [17]: 6.45 µM
GI50 [18]: 3.95 µM
TGI [18]: 10.9 µM
GI50 [19]: 5.34 µM
TGI [19]: 11.6 µM
GI50 [20]: 1810 nM
TGI [20]: 7.96 µM
GI50 [21]: 1890 nM
TGI [21]: 7.61 µM
GI50 [22]: 1550 nM
TGI [22]: 8.89 µM
GI50 [23]: 4.86 µM
TGI [23]: 10.7 µM
GI50 [24]: 3.29 µM
TGI [24]: 9.91 µM
GI50 [25]: 1390 nM
TGI [25]: 5.05 µM
GI50 [26]: 5.49 µM
TGI [26]: 13.1 µM
GI50 [27]: 1380 nM
TGI [27]: 4.1 µM
GI50 [28]: 2230 nM
TGI [28]: 9.06 µM
GI50 [29]: 1450 nM
TGI [29]: 4.86 µM
GI50 [30]: 1600 nM
TGI [30]: 6.07 µM
GI50 [31]: 2790 nM
TGI [31]: 9.4 µM
GI50 [32]: 1480 nM
TGI [32]: 5.24 µM
GI50 [33]: 1490 nM
TGI [33]: 4.98 µM
GI50 [34]: 1030 nM
TGI [34]: 2990 nM
GI50 [35]: 1740 nM
TGI [35]: 7.41 µM
GI50 [36]: 1420 nM
TGI [36]: 6.69 µM
GI50 [37]: 3.07 µM
TGI [37]: 10 µM
GI50 [38]: 2470 nM
TGI [38]: 8.33 µM
GI50 [39]: 1600 nM
TGI [39]: 6.03 µM
GI50 [40]: 2130 nM
TGI [40]: 8.48 µM
GI50 [41]: 1530 nM
TGI [41]: 6.07 µM
GI50 [42]: 1720 nM
TGI [42]: 6.78 µM
GI50 [43]: 1400 nM
TGI [43]: 4.37 µM
GI50 [44]: 1710 nM
TGI [44]: 6.79 µM
GI50 [45]: 2240 nM
TGI [45]: 8.37 µM
GI50 [46]: 1620 nM
TGI [46]: 4.99 µM
GI50 [47]: 4.15 µM
TGI [47]: 18.2 µM
GI50 [48]: 1340 nM
TGI [48]: 4.15 µM
GI50 [49]: 4.67 µM
TGI [49]: 10.8 µM
GI50 [50]: 2460 nM
TGI [50]: 8.43 µM
GI50 [51]: 1450 nM
TGI [51]: 6.79 µM
GI50 [52]: 1880 nM
TGI [52]: 9.16 µM
GI50 [53]: 1530 nM
TGI [53]: 6.36 µM
GI50 [54]: 2420 nM
TGI [54]: 8.6 µM
GI50 [55]: 1650 nM
TGI [55]: 6.18 µM
GI50 [56]: 1040 nM
TGI [56]: 2430 nM
GI50 [57]: 2810 nM
TGI [57]: 9.37 µM
GI50 [58]: 946 nM
TGI [58]: 2080 nM
